Results taken from patent publication US6348483B1, “Use of derivatives of methylene-bis-oxazolidine and compositions obtained thereby” (Air Liquide Sante (International), priority 1998, dated 2002).

What was measured:
Format in all cases: cell-based
Bacteria suspension = assay: Boko test in water-diluted cutting fluids, bacteria suspension
Description: (§1) In separate batches, in each case 100 ml of the water-diluted cutting fluid to be preserved were admixed with various concentrations of the preservatives to be examined. The growth control used was in each case an unpreserved sample. Two days after the incorporation of the preservatives, the test batches were infected for the first time using 1 ml of an inoculating solution. The inoculating solution used was a suspension of the germs listed below (cultivated on nutrient media and then adapted to water-diluted cutting fluids). […] [table] The test batches were subsequently inoculated two times a week and plated onto agar plates two times per week, the first smear being carried out immediately prior to the new inoculation. The microbial growth on the smears was assessed after incubation at 25° C. for three days. […] The preservative effect of the individual product concentrations was assessed in a semiquantitative method by the colonization of the individual smears using the classification from − to +to +++. Growth was differentiated according to bacteria, yeasts and moulds. The test was usually carried out for twelve inoculation cycles or interrupted after repeated +++growth. The cutting fluids Shell Dromus BX or Almasol EP from Castrol or Rondocor Kompakt from Consulta were examined as 4% strength by weight emulsions in tap water from the city of Norderstedt. Inoculation was carried out using a suspension of bacteria or fungi or a mixed suspension of bacteria and fungi.

Fungi suspension = assay: Boko test in water-diluted cutting fluids, fungi suspension
Description: as §1

[1] = test system: Penicillium funiculosum (PF); assay: Fungicidal finish (SM 022) of pure acrylate house paint; details: for Fungicidal finish, colonization rating PF: without stress due to leaching
Description: (§2) In separate batches, the test concentrations of the active compounds/products were incorporated into the house paint, and the fungicidal and/or algistatic finish was determined using the stated test methods.
(§3) Incorporation and testing were carried out according to the methods SM 022 and SM 023 below.
(§4) This laboratory method was used to determine the resistance of house coatings to fungal attack. For the method, house coatings on standardized paper were used as test substrate, and Aspergillus niger (ATCC 6275) and Penicillium funiculosum (ATCC 36839) were used as test fungi. The experiments were carried out in Petri dishes on dextrose nutrient medium.
(§5) 50 g of the material to be finished were, in separate batches, mixed with various concentrations of the fungicide to be examined and homogenized for 3-5 min using a basket stirrer.
(§6) Paper carrier materials having the dimensions 90×270 mm (Schleicher & Schüll No. 2589 B/X 24078) were coated with the test material. The paint and/or render samples were coated to a wet-layer thickness of 250 μm by knife coating. […] In the case of renders, the layer thickness depended, as in practice, on the particle size. The coated carrier materials, hereinbelow referred to as test bodies, were subsequently dried in a horizontal position for five days.
[…] The cross section of the container for the watering in the direction of flow was 1000±500 cm^2.
(§7) From the pretreated test bodies, sample bodies having a diameter of 5 cm were punched out and sterilized in a Co^60 source using at least 10 kGy.
(§8) The Sabouraud dextrose agar, which had solidified in the Petri dish, was inoculated with 0.2 ml of spore suspension (10^7 spores/ml) and plated out using a sterile Drigalski spatula or an offset sterile glass rod.
(§9) The pretreated sample bodies were then evenly placed onto the inoculated surface of the nutrient medium using a pair of tweezers, making sure that the entire surface of the sample body was in contact with the surface of the nutrient medium. The sample was subsequently incubated at 30±2° C. for three weeks. For other test germs, the incubation temperature had to be adapted to achieve optimum growth.
(§10) After one, two and three weeks, the sample bodies were examined for fungal growth. Evaluation was carried out visually or—if this was required to exclude foreign infections—using a magnifying glass. If the extent of the colonization by foreign organisms observed considerably interfered with the evaluation, the experiment could not be evaluated and was repeated. The evaluation of the samples was based on the following evaluation scale:
(§11) 00—entire plate free from colonization*
(§12) 0—zone formation (no colonization around the sample)*
(§13) (0)—fungal colonization up to the sample*
(§14) 1—only the sample edge is colonized*
(§15) 2—the sample is colonized from the edge inwards (less than 25%)
(§16) 3—the sample surface is colonized by individual colonies (25-75%)
(§17) 4—the sample surface is colonized extensively (75% and more, but not the entire surface)
(§18) 5—the sample surface is colonized completely (100%)
(§19) *Note: Samples evaluated as 00, 0, (0) and 1 can be referred to as “being effectively finished against fungal growth”.

Aspergillus niger (AN) [2] = assay: as above; details: without stress due to leaching
[3] = test system: Mixed suspension of bacteria and fungi; assay: Boko test in water-diluted cutting fluids, mixed suspension
Description: as §1

Aspergillus niger (AN) [4] = assay: Fungicidal finish (SM 022) of pure acrylate house paint; details: for Fungicidal finish, colonization rating AN: without stress due to 72 hours leaching (so in the source)
Description: as §2, §3, §4, §5, §6
The test bodies were watered in running tap water of 15±5° C. and a flow rate of 1 l/min for 72 hours and subsequently dried for two days. The cross section of the container for the watering in the direction of flow was 1000±500 cm^2.
as §7, §8, §9, §10, §11, §12, §13, §14, §15, §16, §17, §18, §19

[5] = Cutting fluid Almasol EP, use concentration 0.05% by weight
[6] = Cutting fluid Almasol EP, use concentration 0.10% by weight
[7] = Cutting fluid Almasol EP, use concentration 0.15% by weight
[8] = Cutting fluid Rondocor Kompakt, use concentration 0.05% by weight
[9] = Cutting fluid Rondocor Kompakt, use concentration 0.10% by weight
[10] = Cutting fluid Rondocor Kompakt, use concentration 0.15% by weight
[11] = Cutting fluid Shell Dromus BX, use concentration 0.05% by weight
[12] = Cutting fluid Shell Dromus BX, use concentration 0.10% by weight
[13] = Cutting fluid Shell Dromus BX, use concentration 0.15% by weight

CC1CN(CN2COC(C)C2)CO1 (centres unmarked) [Mar 71, 3,3′-methylenebis-(5-methyloxazolidine)]
Number of inoculation cycles passed on inoculation with Bacteria suspension (Bacteria suspension; [5]): >12
Number of inoculation cycles passed on inoculation with Bacteria suspension (Bacteria suspension; [6]): >12
Number of inoculation cycles passed on inoculation with Bacteria suspension (Bacteria suspension; [7]): >12
Number of inoculation cycles passed on inoculation with Bacteria suspension (Bacteria suspension; [8]): >12
Number of inoculation cycles passed on inoculation with Bacteria suspension (Bacteria suspension; [9]): >12
Number of inoculation cycles passed on inoculation with Bacteria suspension (Bacteria suspension; [10]): >12
Number of inoculation cycles passed on inoculation with Bacteria suspension (Bacteria suspension; [11]): >12
Number of inoculation cycles passed on inoculation with Bacteria suspension (Bacteria suspension; [12]): >12
Number of inoculation cycles passed on inoculation with Bacteria suspension (Bacteria suspension; [13]): >12
Number of inoculation cycles passed on inoculation with Fungi suspension (Fungi suspension; [5]): >12
Number of inoculation cycles passed on inoculation with Fungi suspension (Fungi suspension; [6]): >12
Number of inoculation cycles passed on inoculation with Fungi suspension (Fungi suspension; [7]): >12
Number of inoculation cycles passed on inoculation with Fungi suspension (Fungi suspension; [8]): >12
Number of inoculation cycles passed on inoculation with Fungi suspension (Fungi suspension; [9]): >12
Number of inoculation cycles passed on inoculation with Fungi suspension (Fungi suspension; [10]): >12
Number of inoculation cycles passed on inoculation with Fungi suspension (Fungi suspension; [11]): >12
Number of inoculation cycles passed on inoculation with Fungi suspension (Fungi suspension; [12]): >12
Number of inoculation cycles passed on inoculation with Fungi suspension (Fungi suspension; [13]): >12
Fungicidal activity (in words), PF ([1]; house paint test): no fungicidal activity in practice
Fungicidal finish, colonization rating PF ([1]; use conc. 0.5% W/W, 1. week): 5 (the sample surface is colonized completely (100%))
Fungicidal finish, colonization rating PF ([1]; use conc. 0.5% W/W, 2. week): 5 (the sample surface is colonized completely (100%))
Fungicidal finish, colonization rating PF ([1]; use conc. 1.0% W/W, 1. week): 5 (the sample surface is colonized completely (100%))
Fungicidal finish, colonization rating PF ([1]; use conc. 1.0% W/W, 2. week): 5 (the sample surface is colonized completely (100%))
Fungicidal finish, colonization rating PF ([1]; use conc. 2.0% W/W, 1. week): 3 (the sample surface is colonized by individual colonies (25%-75%))
Fungicidal finish, colonization rating PF ([1]; use conc. 2.0% W/W, 2. week): 4 (the sample surface is colonized extensively (75% and more, but not the entire surface))
Fungicidal finish, colonization rating AN (Aspergillus niger (AN) [2]; use conc. 0.5% W/W, 1. week): 5 (the sample surface is colonized completely (100%))
Fungicidal finish, colonization rating AN (Aspergillus niger (AN) [2]; use conc. 0.5% W/W, 2. week): 5 (the sample surface is colonized completely (100%))
Fungicidal finish, colonization rating AN (Aspergillus niger (AN) [2]; use conc. 1.0% W/W, 1. week): 5 (the sample surface is colonized completely (100%))
Fungicidal finish, colonization rating AN (Aspergillus niger (AN) [2]; use conc. 1.0% W/W, 2. week): 5 (the sample surface is colonized completely (100%))
Fungicidal finish, colonization rating AN (Aspergillus niger (AN) [2]; use conc. 2.0% W/W, 1. week): 5 (the sample surface is colonized completely (100%))
Fungicidal finish, colonization rating AN (Aspergillus niger (AN) [2]; use conc. 2.0% W/W, 2. week): 5 (the sample surface is colonized completely (100%))
Number of inoculation cycles passed on inoculation with Mixed suspension [3, 5]: 11
Number of inoculation cycles passed on inoculation with Mixed suspension [3, 6]: >12
Number of inoculation cycles passed on inoculation with Mixed suspension [3, 7]: 11
Number of inoculation cycles passed on inoculation with Mixed suspension [3, 8]: >12
Number of inoculation cycles passed on inoculation with Mixed suspension [3, 9]: >12
Number of inoculation cycles passed on inoculation with Mixed suspension [3, 10]: >12
Number of inoculation cycles passed on inoculation with Mixed suspension [3, 11]: 4
Number of inoculation cycles passed on inoculation with Mixed suspension [3, 12]: 11
Number of inoculation cycles passed on inoculation with Mixed suspension [3, 13]: >12
Fungicidal activity (in words), AN (Aspergillus niger (AN) [4]; house paint test): no fungicidal activity in practice
Fungicidal finish, colonization rating AN (Aspergillus niger (AN) [4]; use conc. 0.5% W/W, 1. week): 5 (the sample surface is colonized completely (100%))
Fungicidal finish, colonization rating AN (Aspergillus niger (AN) [4]; use conc. 0.5% W/W, 2. week): 5 (the sample surface is colonized completely (100%))
Fungicidal finish, colonization rating AN (Aspergillus niger (AN) [4]; use conc. 1.0% W/W, 1. week): 5 (the sample surface is colonized completely (100%))
Fungicidal finish, colonization rating AN (Aspergillus niger (AN) [4]; use conc. 1.0% W/W, 2. week): 5 (the sample surface is colonized completely (100%))
Fungicidal finish, colonization rating AN (Aspergillus niger (AN) [4]; use conc. 2.0% W/W, 1. week): 5 (the sample surface is colonized completely (100%))
Fungicidal finish, colonization rating AN (Aspergillus niger (AN) [4]; use conc. 2.0% W/W, 2. week): 5 (the sample surface is colonized completely (100%))
